Measurements from PubChem BioAssay AID2060507 (Molecular Pharmacology Branch, DTP, NCI, 2025).

Test system: 519858-162-T-J1-PDC complex spheroid viability
Assay: Anticancer human tumor 519858-162-T-J1-PDC patient-derived colon adenocarcinoma cell line growth inhibition [GQUAD]
Conditions: for IC50: curve of first compound; for viability, T/C: stronger effect = lower value
Outline: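 Tumor cells were grown as complex spheroids with HUVEC endothelial cells and mesenchymal stem cells as stroma. G-quadruplex stabilizers were combined with targeted agents over half-log dilutions from near the clinical Cmax, or from 10 microM.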

[1] = second compound 0.0316 µM, first compound 0.0316 µM
[2] = second compound 0.0316 µM, first compound 0.1 µM
[3] = second compound 0.0316 µM, first compound 0.316 µM
[4] = second compound 0.0316 µM, first compound 1 µM
[5] = second compound 0.0316 µM, first compound 3.16 µM
[6] = second compound 0.0316 µM, first compound 10 µM
[7] = second compound 0.1 µM, first compound 0.0316 µM
[8] = second compound 0.1 µM, first compound 0.1 µM
[9] = second compound 0.1 µM, first compound 0.316 µM
[10] = second compound 0.1 µM, first compound 1 µM
[11] = second compound 0.1 µM, first compound 3.16 µM
[12] = second compound 0.1 µM, first compound 10 µM
[13] = second compound 0.316 µM, first compound 0.0316 µM
[14] = second compound 0.316 µM, first compound 0.1 µM
[15] = second compound 0.316 µM, first compound 0.316 µM
[16] = second compound 0.316 µM, first compound 1 µM
[17] = second compound 0.316 µM, first compound 3.16 µM
[18] = second compound 0.316 µM, first compound 10 µM
[19] = second compound 1 µM, first compound 0.0316 µM
[20] = second compound 1 µM, first compound 0.1 µM
[21] = second compound 1 µM, first compound 0.316 µM
[22] = second compound 1 µM, first compound 1 µM
[23] = second compound 1 µM, first compound 3.16 µM
[24] = second compound 1 µM, first compound 10 µM
[25] = second compound 3.16 µM, first compound 0.0316 µM
[26] = second compound 3.16 µM, first compound 0.1 µM
[27] = second compound 3.16 µM, first compound 0.316 µM
[28] = second compound 3.16 µM, first compound 1 µM
[29] = second compound 3.16 µM, first compound 3.16 µM
[30] = second compound 3.16 µM, first compound 10 µM
[31] = second compound 10 µM, first compound 0.0316 µM
[32] = second compound 10 µM, first compound 0.1 µM
[33] = second compound 10 µM, first compound 0.316 µM
[34] = second compound 10 µM, first compound 1 µM
[35] = second compound 10 µM, first compound 3.16 µM
[36] = second compound 10 µM, first compound 10 µM
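Also: spheroids exposed to compounds for 7 days.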
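For viability, T/C in this document: 100% = DMSO vehicle control viability.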

COc1cc(C2c3cc4c(cc3C(OC3OC5COC(C)OC5C(O)C3O)C3COC(=O)C23)OCO4)cc(OC)c1O (stereo unspecified) + CN(C)c1ccc(Nc2c3ccc(NC(=O)CCN4CCCC4)cc3nc3cc(NC(=O)CCN4CCCC4)ccc23)cc1
IC50 (second compound 0.0316 µM): > 10 µM | IC50 (second compound 0.1 µM): > 10 µM | IC50 (second compound 0.316 µM): > 10 µM | IC50 (second compound 1 µM): > 10 µM | IC50 (second compound 3.16 µM): > 10 µM | IC50 (second compound 10 µM): > 10 µM | viability, T/C [1]: 87.2% | viability, T/C [2]: 80.1% | viability, T/C [3]: 83.5% | viability, T/C [4]: 69.2% | viability, T/C [5]: 80.7% | viability, T/C [6]: 103% | viability, T/C [7]: 68.6% | viability, T/C [8]: 81.8% | viability, T/C [9]: 79.6% | viability, T/C [10]: 94.3% | viability, T/C [11]: 60.8% | viability, T/C [12]: 84% | viability, T/C [13]: 93.5% | viability, T/C [14]: 95.8% | viability, T/C [15]: 80.5% | viability, T/C [16]: 61.8% | viability, T/C [17]: 77% | viability, T/C [18]: 62.7% | viability, T/C [19]: 85.4% | viability, T/C [20]: 65.2% | viability, T/C [21]: 64.9% | viability, T/C [22]: 65.9% | viability, T/C [23]: 77% | viability, T/C [24]: 80.3% | viability, T/C [25]: 59.8% | viability, T/C [26]: 76.2% | viability, T/C [27]: 65.3% | viability, T/C [28]: 74.1% | viability, T/C [29]: 101% | viability, T/C [30]: 67.6% | viability, T/C [31]: 55.6% | viability, T/C [32]: 69.2% | viability, T/C [33]: 73.6% | viability, T/C [34]: 64.3% | viability, T/C [35]: 74.8% | viability, T/C [36]: 83.8%

Cn1ncnc1[C@H]1c2n[nH]c(=O)c3cc(F)cc(c23)N[C@@H]1c1ccc(F)cc1 + CN(C)c1ccc(Nc2c3ccc(NC(=O)CCN4CCCC4)cc3nc3cc(NC(=O)CCN4CCCC4)ccc23)cc1
IC50 (second compound 0.0316 µM): > 0.316 µM | IC50 (second compound 0.1 µM): > 0.316 µM | IC50 (second compound 0.316 µM): > 0.316 µM | IC50 (second compound 1 µM): > 0.316 µM | IC50 (second compound 3.16 µM): > 0.316 µM | IC50 (second compound 10 µM): > 0.316 µM | viability, T/C (second compound 0.0316 µM, first compound 0.000999 µM): 74.5% | viability, T/C (second compound 0.0316 µM, first compound 0.00316 µM): 119% | viability, T/C (second compound 0.0316 µM, first compound 0.00999 µM): 146% | viability, T/C [1]: 66.9% | viability, T/C (second compound 0.0316 µM, first compound 0.0999 µM): 79.6% | viability, T/C [3]: 118% | viability, T/C (second compound 0.1 µM, first compound 0.000999 µM): 96% | viability, T/C (second compound 0.1 µM, first compound 0.00316 µM): 109% | viability, T/C (second compound 0.1 µM, first compound 0.00999 µM): 79% | viability, T/C [7]: 103% | viability, T/C (second compound 0.1 µM, first compound 0.0999 µM): 104% | viability, T/C [9]: 105% | viability, T/C (second compound 0.316 µM, first compound 0.000999 µM): 94.4% | viability, T/C (second compound 0.316 µM, first compound 0.00316 µM): 139% | viability, T/C (second compound 0.316 µM, first compound 0.00999 µM): 99.1% | viability, T/C [13]: 84.6% | viability, T/C (second compound 0.316 µM, first compound 0.0999 µM): 83% | viability, T/C [15]: 109% | viability, T/C (second compound 1 µM, first compound 0.000999 µM): 75.3% | viability, T/C (second compound 1 µM, first compound 0.00316 µM): 68.4% | viability, T/C (second compound 1 µM, first compound 0.00999 µM): 82.2% | viability, T/C [19]: 63.5% | viability, T/C (second compound 1 µM, first compound 0.0999 µM): 88.9% | viability, T/C [21]: 119% | viability, T/C (second compound 3.16 µM, first compound 0.000999 µM): 104% | viability, T/C (second compound 3.16 µM, first compound 0.00316 µM): 97.8% | viability, T/C (second compound 3.16 µM, first compound 0.00999 µM): 78.6% | viability, T/C [25]: 63.2% | viability, T/C (second compound 3.16 µM, first compound 0.0999 µM): 54.8% | viability, T/C [27]: 91.9% | viability, T/C (second compound 10 µM, first compound 0.000999 µM): 89.9% | viability, T/C (second compound 10 µM, first compound 0.00316 µM): 57.5% | viability, T/C (second compound 10 µM, first compound 0.00999 µM): 82.4% | viability, T/C [31]: 79.6% | viability, T/C (second compound 10 µM, first compound 0.0999 µM): 67.5% | viability, T/C [33]: 65.7%

C=CC(=O)N1CCN(c2nc(=O)n(-c3c(C)ccnc3C(C)C)c3nc(-c4c(O)cccc4F)c(F)cc23)C(C)C1 (stereo unspecified) + Cc1[nH]c2ccc(F)cc2c1-c1nc2c3cccnc3c3ncccc3c2[nH]1
IC50 (second compound 0.0316 µM): > 10 µM | IC50 (second compound 0.1 µM): > 10 µM | IC50 (second compound 0.316 µM): > 10 µM | IC50 (second compound 1 µM): > 10 µM | IC50 (second compound 3.16 µM): > 10 µM | IC50 (second compound 10 µM): < 0.0316 µM | viability, T/C [1]: 80.3% | viability, T/C [2]: 88.6% | viability, T/C [3]: 65.3% | viability, T/C [4]: 81.8% | viability, T/C [5]: 90.9% | viability, T/C [6]: 71.1% | viability, T/C [7]: 130% | viability, T/C [8]: 96.3% | viability, T/C [9]: 104% | viability, T/C [10]: 89.7% | viability, T/C [11]: 81.4% | viability, T/C [12]: 82.2% | viability, T/C [13]: 76.3% | viability, T/C [14]: 95.4% | viability, T/C [15]: 62.8% | viability, T/C [16]: 73% | viability, T/C [17]: 74.7% | viability, T/C [18]: 97.5% | viability, T/C [19]: 97.3% | viability, T/C [20]: 75.4% | viability, T/C [21]: 94.8% | viability, T/C [22]: 85.8% | viability, T/C [23]: 79.3% | viability, T/C [24]: 69.3% | viability, T/C [25]: 59.6% | viability, T/C [26]: 73.6% | viability, T/C [27]: 79.5% | viability, T/C [28]: 46.4% | viability, T/C [29]: 72.1% | viability, T/C [30]: 53.5% | viability, T/C [31]: 39.9% | viability, T/C [32]: 44% | viability, T/C [33]: 65.6% | viability, T/C [34]: 62.8% | viability, T/C [35]: 52.5% | viability, T/C [36]: 80.4%
